One assay relates to A549. In words: Cytotoxicity against human A549 cells assessed as reduction in cell viability by MTT assay. The assay is classed as functional, cell-based. (In general: Tetrazolium dyes change colour on reduction, which living cells bring about.)
Assay [1] concerns HCT-116. The experiment in a line: Cytotoxicity against human HCT-116 cells assessed as reduction in cell viability by MTT assay. In kind it is functional, cell-based.
The test system of the next assay is MDA-MB-231. In words: Cytotoxicity against human MDA-MB-231 cells assessed as reduction in cell viability by MTT assay. In kind it is functional, cell-based.
Assay [2] relates to HCT-116. The experiment in a line: Induction of apoptosis in human HCT-116 cells assessed as increase in cleaved-PARP protein expression after 24 hrs by Western blot analysis. The assay is classed as functional, cell-based. The following applies: dose microM 4-16, time 24.0 hrs. On the technique in general: Immunoblotting shows a protein as a band on a membrane.
Assay [3] concerns HCT-116. The experiment in a line: Induction of apoptosis in human HCT-116 cells assessed as apoptotic cells after 24 hrs by Annexin V-FITC/propidium iodide staining based flow cytometric analysis. In kind it is functional, cell-based. To be noted: dose microM 4-16, time 24.0 hrs. (Flow cytometry measures light scatter and fluorescence of single cells or particles in a stream.)

For assay [4], the system named is HCT-116. The experiment in a line: Induction of apoptosis in human HCT-116 cells assessed as increase in cleaved-caspace-7 protein expression after 24 hrs by Western blot analysis. In kind it is functional, cell-based. The following applies: dose microM 4-16, time 24.0 hrs.
In assay [5] the test system is HCT-116. In words: Induction of apoptosis in human HCT-116 cells assessed as late apoptotic cells at 8 uM after 24 hrs by Annexin V-FITC/propidium iodide staining based flow cytometric analysis (reference value: 6.5%). In kind it is functional.
The test system of assay [6] is HCT-116. In words: Induction of apoptosis in human HCT-116 cells assessed as early apoptotic cells at 8 uM after 24 hrs by Annexin V-FITC/propidium iodide staining based flow cytometric analysis (reference value: 5.3%). In kind it is functional.
Assay [7] relates to HCT-116. The experiment in a line: Induction of apoptosis in human HCT-116 cells assessed as viable cells at 8 uM after 24 hrs by Annexin V-FITC/propidium iodide staining based flow cytometric analysis (reference value: 87.8%). In kind it is functional. The following applies: read-out: Activity.
Assay [8] relates to HCT-116. The experiment in a line: Induction of apoptosis in human HCT-116 cells assessed as early apoptotic cells at 4 uM after 24 hrs by Annexin V-FITC/propidium iodide staining based flow cytometric analysis (reference value: 5.3%). The assay is classed as functional.
For assay [9], the system named is HCT-116. The experiment in a line: Induction of apoptosis in human HCT-116 cells assessed as viable cells at 4 uM after 24 hrs by Annexin V-FITC/propidium iodide staining based flow cytometric analysis (reference value: 87.8%). The assay is classed as functional. The following applies: read-out: Activity.
Assay [10] concerns HCT-116. The experiment in a line: Induction of apoptosis in human HCT-116 cells assessed as late apoptotic cells at 4 uM after 24 hrs by Annexin V-FITC/propidium iodide staining based flow cytometric analysis (reference value: 6.5%). The assay is classed as functional.
The subject of assay [11] is HCT-116. In words: Induction of apoptosis in human HCT-116 cells assessed as early apoptotic cells at 16 uM after 24 hrs by Annexin V-FITC/propidium iodide staining based flow cytometric analysis (reference value: 5.3%). The assay is classed as functional.
Assay [12] deals with HCT-116. The experiment in a line: Induction of apoptosis in human HCT-116 cells assessed as necrotic cells at 8 uM after 24 hrs by Annexin V-FITC/propidium iodide staining based flow cytometric analysis (reference value: 0.4%). In kind it is functional.
In assay [13] the test system is HCT-116. In words: Induction of apoptosis in human HCT-116 cells assessed as necrotic cells at 4 uM after 24 hrs by Annexin V-FITC/propidium iodide staining based flow cytometric analysis (reference value: 0.4%). The assay is classed as functional.
Assay [14] deals with HCT-116. The experiment in a line: Induction of apoptosis in human HCT-116 cells assessed as viable cells at 16 uM after 24 hrs by Annexin V-FITC/propidium iodide staining based flow cytometric analysis (reference value: 87.8%). In kind it is functional. To be noted: read-out: Activity.
Assay [15] has as its system HCT-116. The experiment in a line: Induction of apoptosis in human HCT-116 cells assessed as necrotic cells at 16 uM after 24 hrs by Annexin V-FITC/propidium iodide staining based flow cytometric analysis (reference value: 0.4%). In kind it is functional.
For assay [16], the system named is HCT-116. In words: Induction of apoptosis in human HCT-116 cells assessed as late apoptotic cells at 16 uM after 24 hrs by Annexin V-FITC/propidium iodide staining based flow cytometric analysis (reference value: 6.5%). In kind it is functional.
For assay [17], the system named is HCT-116. The experiment in a line: Induction of apoptosis in human HCT-116 cells assessed as increase in cleaved-caspace-3 protein expression after 24 hrs by Western blot analysis. The assay is classed as functional, cell-based. The following applies: dose microM 4-16, time 24.0 hrs.

By IC50 is commonly meant the point on the concentration scale where inhibition reaches its midpoint.

On to `C=C1C(=O)O[C@@H]2[C@@H](OC(=O)C(C)C)[C@@](C)(O)C[C@H]3C[C@@H](C)[C@@](O)(C[C@@H]12)O3`, for which the values for the IC50 with A549, with HCT-116 [1] and in the assay on MDA-MB-231 were > 50 µM, 20.2 µM and > 50 µM, respectively.
As to `C=C1C(=O)O[C@@H]2[C@@H](OC(=O)C(C)C)[C@@](C)(O)CCC[C@@H](C)C(=O)C[C@@H]12`, the IC50 in the assay on A549 was found to be 26.6 µM; in the assay on HCT-116 [1], 8.5 µM; in the assay on MDA-MB-231, 11.6 µM.
`C=C1C(=O)O[C@@H]2[C@@H](OC(=O)CC(C)C)[C@@](C)(O)CCC[C@@H](C)C(=O)C[C@@H]12`: the Activity entry was “Dose-dependent effect” in the assay with HCT-116 [2]; “Dose-dependent effect” in the assay on HCT-116 [3]; “Dose-dependent effect” in the assay with HCT-116 [4]; 8.3% with HCT-116 [5]; 7.3% in the assay with HCT-116 [6]; 5.2% in the assay with HCT-116 [8]. The Activity in the assay with HCT-116 [10] came to 7.3%; in the assay on HCT-116 [11] it was 10.5%; in the assay on HCT-116 [12], 0.6%; with HCT-116 [13] it was 0.4%; in the assay on HCT-116 [15], 0.6%; in the assay on HCT-116 [16], 15%. Also, in the assay with HCT-116 [17], the Activity entry was “Dose-dependent effect”. Besides, the IC50 with A549 was found to be 8.4 µM; in the assay on HCT-116 [1], 3.7 µM; in the assay on MDA-MB-231, 6.1 µM. The viability at 8 µM with HCT-116 [7] is 83.8%. Also, the viability at 4 µM in the assay on HCT-116 [9] amounted to 87.1%. In addition, the viability at 16 µM with HCT-116 [14] came out at 73.9%.
Take `C=C1C(=O)O[C@@H]2[C@@H](OC(=O)[C@@H](C)CC)[C@@](C)(O)C[C@H]3C[C@@H](C)[C@@](O)(C[C@@H]12)O3`: the IC50 in the assay on A549 was 24.3 µM; in the assay with HCT-116 [1], 14 µM; in the assay with MDA-MB-231, 23.7 µM.
Turning to `C=C1C(=O)O[C@@H]2[C@@H](OC(=O)CC(C)C)[C@@](C)(O)C[C@H]3C[C@@H](C)[C@@](O)(C[C@@H]12)O3`, the IC50 in the assay with A549 was determined as 24.5 µM; in the assay on HCT-116 [1], 17.2 µM; in the assay with MDA-MB-231, 27.9 µM.
With `C=C1C(=O)O[C@@H]2[C@@H](OC(=O)/C(C)=C\C)[C@@](C)(O)CCC[C@@H](C)C(=O)C[C@@H]12`, the IC50 in the assay with A549 stood at 14.1 µM; with HCT-116 [1], 3.2 µM; in the assay on MDA-MB-231, 4.7 µM.
For `C=C1C(=O)O[C@@H]2[C@@H](OC(=O)[C@H](C)CC)[C@@](C)(O)CCC[C@@H](C)C(=O)C[C@@H]12`, the IC50 was 24.7 µM in the assay with A549, 5.3 µM with HCT-116 [1] and 10.6 µM in the assay with MDA-MB-231.
For `C=C1C(=O)O[C@@H]2[C@@H](OC(=O)[C@H](C)CC)[C@@](C)(O)C[C@H]3C[C@@H](C)[C@@](O)(C[C@@H]12)O3`, the IC50 in the assay with A549 worked out at 37.6 µM; in the assay with HCT-116 [1] it was 21.4 µM; in the assay on MDA-MB-231 it was 48.9 µM.
In the case of `C=C1C(=O)O[C@@H]2[C@@H](OC(=O)[C@@H](C)CC)[C@@](C)(O)CCC[C@@H](C)C(=O)C[C@@H]12`, the half-maximal inhibitory concentration (IC50) with A549 worked out at 31.9 µM; with HCT-116 [1], 6.7 µM; in the assay with MDA-MB-231, 14.6 µM.
`C=C1C(=O)O[C@@H]2[C@@H](OC(=O)/C(C)=C\C)[C@@](C)(O)C[C@H]3C[C@@H](C)[C@@](O)(C[C@@H]12)O3`: the figures for the IC50 in the assay with A549, in the assay with HCT-116 [1] and with MDA-MB-231 were 17.3 µM, 17.8 µM and 23.4 µM, respectively.

These data come from ChEMBL document CHEMBL4699561, “Cytotoxic Germacranolides from the Whole Plant of Carpesium minus” (J Nat Prod, 2020).
